# Test results reported in patent US5998414A, “Troponyl piperazines as dopamine D4 receptor ligands” (priority 1997, dated 1999).
# pKi: −log10 of the molar value.
# Experiments:
# [1] = target: human D2 receptor (short isoform) (Homo sapiens, UniProt P14416); experiment: D2 receptor displacement binding assay (3H-spiperone, membrane homogenate of stably transfected GH4 C1 cells), used for D2/D4 selectivity; conditions: ratio D2/D4, 3H-spiperone displacement
# Method: (§1) The potency of the test compound to reduce ^3 H-spiperone binding directly correlated to its binding affinity for the receptor.
# GH4 C1 (rat pituitary) cells stably transfected with the human D2 receptor (short isoform) were grown in HAM'S F10 media in NUNC cell factories for 5 days. 100 μM ZnSO4 was added to the cells (the D2 promoter being zinc inducible). After 16 hours, fresh media was added to allow the cells to recover for 24 hours. The cells were harvested using versine and then centrifuged in a Sorval centrifuge for 10 minutes, at 5000 rpm (GS3 rotor). Pellets were quickly frozen in liquid nitrogen and stored at -80° C. until used in the binding assays. When used in the assay, cells were thawed on ice for 20 minutes. […] The receptor protein concentration was determined using the Pierce BCA assay.
# (§2) Total Spiperone Binding Assay
# (§3) The plates were vortexed and incubated at room temperature for 90 minutes. The binding reaction was stopped by filtering using a Packard Harvester. The samples were filtered under vacuum over glass fibre filter plates (Whatman GF/B) presoaked for 2 hours in 0.3% polyethylenimine (PEI) in 50 mM Tris buffer (pH 7.4). The filters were then washed 6 times with 7 ml ice cold 50 mM Tris buffer (pH 7.4). The filter plates were dried overnight and 35 μl of Microscint-O (Packard) was added. The plates were sealed and counted in the Packard Top Count (3 minutes per well).
# Non-specific Binding Assay for D2
# This assay employed the same procedures as the non-specific binding assay for D4 with the exception that 2 μM (final conc.) of (-) sulpiride (Research Chemicals Inc.) was used in place of dopamine.
# (§4) Displacement Binding Assay
# (§5) The incubation was started by the addition, in 96-well polypropylene plates (1 mL per well), of 100 μl (50 μg protein) membrane homogenate to a solution of 200 μl incubation buffer, 100 μl ([…].) ^3 H-spiperone (90 Ci/mmol, Amersham, diluted in borosilicate glass vial) and 100 μl of test compound that was prepared from 1 mM stock dissolved in DMSO and stored at -20° C. in polypropylene cryogenic storage vials until dilution in incubation buffer in 96-well polypropylene plates. The plates were vortexed and incubated at room temperature for 90 minutes at which time the binding reaction was stopped by filtering. The filters were washed and counted using the same procedure as in the total binding assay described above to give the displacement binding value (BD).
# (§6) IC50 was determined from an inhibition response curve, logit-log plot of %B/B0 vs concentration of test compound.
# (§7) Ki was calculated by the Cheng and Prustoff transformation: […]
# (§8) where [L] is the concentration of ^3 H-spiperone used in the assay and KD is the dissociation constant of ^3 H-spiperone determined independently under the same binding conditions.
# [2] = target: T1, human D4 receptor (D4.2 sub-type) (Homo sapiens, UniProt P21917, DEL265-296); experiment: D4 receptor displacement binding assay (3H-spiperone, membrane homogenate of stably transfected HEK 298 cells); conditions: 3H-spiperone displacement, human D4.2, HEK cells; Cheng and Prustoff transformation of IC50; read-out: D4 affinity Ki
# T1 construct: expressed in transfected cells; host or cells: HEK 298 (human embryonic kidney) cells (so in the source); membrane homogenate
# T1 sequence (P21917 with tags, fused parts or gaps DEL265-296): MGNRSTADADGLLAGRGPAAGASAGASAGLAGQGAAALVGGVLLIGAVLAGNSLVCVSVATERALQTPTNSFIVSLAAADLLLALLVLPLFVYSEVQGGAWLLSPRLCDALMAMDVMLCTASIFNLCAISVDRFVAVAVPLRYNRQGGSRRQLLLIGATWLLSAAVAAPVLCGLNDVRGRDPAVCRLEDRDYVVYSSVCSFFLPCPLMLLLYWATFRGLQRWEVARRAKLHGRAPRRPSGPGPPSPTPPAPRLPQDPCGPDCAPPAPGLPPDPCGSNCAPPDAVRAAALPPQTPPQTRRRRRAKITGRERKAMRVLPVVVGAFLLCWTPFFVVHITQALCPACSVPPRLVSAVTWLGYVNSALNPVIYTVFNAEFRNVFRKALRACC
# Method: as §1
# The cells were then centrifuged in a Sorval centrifuge for 10 min, 5000 rpm (GS3 rotor) and the pellets quickly frozen in liquid nitrogen and stored at -80° C. until used in binding assay. When used in the assay, cells were thawed on ice for 20 min and then 10 ml of incubation buffer (50 mM Tris, 1 mM EDTA, 4 mM MgCl2, 5 mM KCl, 1.5 mM CaCl2, 120 mM NaCl, pH 7.4) was added. […] Concentration of receptor protein was determined using the Pierce BCA assay.
# as §2, §3
# Non-specific Binding Assay for D4
# The plates were vortexed and incubated at room temperature for 90 minutes at which time the binding reaction was stopped by filtering. The filters were washed and counted using the same procedure as in the total binding assay described above to give the non-specific binding value (NSB).
# as §4, §5, §6, §7, §8
# [3] = target: D4 receptor; conditions: background, marketed products; cited from earlier work
# [4] = tested on: D2 receptor; conditions: background, marketed products; cited from earlier work
# [5] = target: T2, human D4.2 receptors (Homo sapiens, UniProt P21917, DEL265-296); experiment: Functional antagonist assay: reversal of dopamine inhibition of forskolin-stimulated adenyl cyclase (cAMP) in CHO Pro 5 cells; type: cell-based; conditions: dopamine and forskolin both 10 μM, read-out: % reversal of dopamine effect; for inhibition at 1 µM: 1 μM test compound; for inhibition at 10 µM: 10 μM test compound
# T2 construct: expressed in transfected cells; host or cells: CHO Pro 5 cells
# T2 sequence (P21917 with tags, fused parts or gaps DEL265-296): T1 sequence (P21917 with tags, fused parts or gaps DEL265-296)
# Method: The D4 receptor responds to dopamine and other agonists by reducing adenyl cyclase mediated production of cyclic AMP. Particular test compounds were assayed for their ability to reverse dopamine inhibition of adenyl cyclase by the following procedure. Forskolin was used to elevate the basal adenyl cyclase activity.
# CHO Pro 5 cells stably expressing human D4.2 receptors were plated in 6 well plates in DMEM (Dulbecco's Modified Eagle Medium)/F12(Nutrient Mixture F12 (Ham)) media with 10% FCS (fetal calf serum) and G418 (Geneticen Disulfate), and incubated at 37° C. in a CO2 incubator. The cells were allowed to grow to about 70% confluence before use in the assay.
# The culture media of each well was removed, and the wells were washed once with serum free media (SFM) (DMEM/F12) media. Then 2 mL of fresh SFM+IBMX media (SFM with 0.5 mM IBMX, 3-isobutyl-1-methylxanthine, 0.1% ascorbic acid and 10 μM pargyline) was added to each well and then incubated at 37° C. for 10 minutes in a CO2 incubator. […] Basal adenyl cyclase activity was determined from wells with only SFM+IBMX media added.
# The cells were then incubated at 37° C. for 30 minutes in a CO2 incubator. Following incubation the media was removed from each well and then washed once with 1 mL of PBS (phosphate buffered saline). […] The cells from each well were then scraped and transferred into individual Eppendorf tubes. The tubes were centrifuged for 5 min at 4° C., and the supernatants were transferred to new Eppendorf tubes.
# Total inhibition (I0) of forskolin-stimulated adenyl cyclase activity by dopamine was determined as the difference in concentration of cAMP in the forskolin-treated cells (Cf) and dopamine-forskolin treated cells (Cd).
# Net inhibition (I) of forskolin-stimulated adenyl cyclase activity by dopamine in the presence of an antagonist was determined as the difference in concentration of cAMP in the forskolin-treated cells (Cf) and test compound, dopamine and forskolin treated cells (C).
# The ability of the test compounds to reverse the dopamine inhibition (% reversal, % R) was determined by the formula: […]
# Chain of human D2 receptor (short isoform) (P14416 with tags, fused parts or gaps DEL242-270): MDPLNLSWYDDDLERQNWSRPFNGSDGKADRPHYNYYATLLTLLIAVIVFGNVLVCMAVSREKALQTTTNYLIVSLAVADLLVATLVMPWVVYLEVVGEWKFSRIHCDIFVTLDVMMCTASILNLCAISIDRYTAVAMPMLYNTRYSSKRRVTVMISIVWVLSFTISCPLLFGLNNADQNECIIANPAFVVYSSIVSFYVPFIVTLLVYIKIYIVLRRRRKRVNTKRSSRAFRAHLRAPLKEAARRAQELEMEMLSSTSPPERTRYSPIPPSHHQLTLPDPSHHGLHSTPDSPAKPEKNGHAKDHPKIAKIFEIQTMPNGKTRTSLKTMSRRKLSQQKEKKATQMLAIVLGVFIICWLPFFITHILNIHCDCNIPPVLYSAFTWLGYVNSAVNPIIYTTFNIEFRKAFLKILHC
SMILES,D2/D4 selectivity [1],pKi [2],inhibition at 1 µM [5],inhibition at 10 µM [5],pKi [3],preference for binding the D4 receptor relative to the D2 receptor [4]
"O=c1cccccc1N1CCN(Cc2cccc(Br)c2)CC1 [2-[4-(3-bromobenzyl)-1-piperazinyl]-2,4,6-cycloheptatriene-1-one]",53,8.02,,,,
"O=c1c(-c2cccs2)ccccc1N1CCN(Cc2ccc3c(c2)OCO3)CC1 [2-(4-Piperonyl-1-piperazinyl)7-thien2-yl-2,4,6-cycloheptatriene-1-one]",34,7.92,,,,
"Cc1ccc(CN2CCN(c3cccccc3=O)CC2)cc1 [2-[4-(4-methylbenzyl)-1-piperazinyl]-2,4,6-cycloheptatriene-1-one]",443,8.84,,,,
CN1CCN(C2=Nc3cc(Cl)ccc3Oc3ccccc32)CC1 [isoloxapine],,,,,~7.70,about 10 fold
"O=c1cccccc1N1CCN(Cc2ccc([N+](=O)[O-])cc2)CC1 [2-[4-(4-nitrobenzyl)-1-piperazinyl]-2,4,6-cycloheptatriene-1-one]",1014,8.18,,,,
"N#Cc1ccc(CN2CCN(c3cccccc3=O)CC2)cc1 [2-[4-(4-cyanobenzyl)-1-piperazinyl]-2,4,6-cycloheptatriene-1-one]",169,7.53,,,,
"O=c1cccccc1N1CCN(Cc2cccc(C(F)(F)F)c2)CC1 [2-[4-(3-trifluoromethylbenzyl)-1-piperazinyl]-2,4,6-cycloheptatriene-1-one]",28,7.67,,,,
"O=c1cccccc1N1CCN(Cc2ccc3c(c2)OCO3)CC1 [2-(4-Piperonyl-1-piperazinyl)-2,4,6-cycloheptatriene-1-one]",154,8.15,32%,65%,,
"O=c1cccccc1N1CCN(Cc2ccc(Br)cc2)CC1 [2-[4-(4-bromobenzyl)-1-piperazinyl]-2,4,6-cycloheptatriene-1-one]",935,9.09,,,,
"COc1cccc(CN2CCN(c3cccccc3=O)CC2)c1 [2-[4-(3-Methoxybenzyl)-1-piperazinyl]-2,4,6-cycloheptatriene-1-one]",137,7.72,,,,

# Continued by rising pKi [2], values first:
D2/D4 selectivity [1],pKi [2],inhibition at 1 µM [5],inhibition at 10 µM [5],SMILES,pKi [3],preference for binding the D4 receptor relative to the D2 receptor [4]
23,7.48,45%,50%,"CCCCCCN1CCN(c2cccccc2=O)CC1 [2-(4-hexyl-1-piperazinyl)-2,4,6-cycloheptatriene-1-one]",,
598,8.37,,,"O=c1cccccc1N1CCN(Cc2ccc(C(F)(F)F)cc2)CC1 [2-[4-(4-trifluoromethylbenzyl)-1-piperazinyl]-2,4,6-cycloheptatriene-1-one]",,
321,8.65,,,O=c1cccccc1N1CCN(Cc2ccc3ccccc3c2)CC1,,
367,8.66,,,"O=c1cccccc1N1CCN(Cc2ccc(OC(F)(F)F)cc2)CC1 [2-[4-(4-trifluoromethoxybenzyl)-1-piperazinyl]-2,4,6-cycloheptatriene-1-one]",,
104,9.65,,,"O=c1c(Br)ccccc1N1CCN(Cc2ccc3c(c2)OCO3)CC1 [7-bromo-2-(4-piperonyl-1-piperazinyl)-2,4,6-cycloheptatriene-1-one]",,
